A word on the IC50: it is the midpoint of a concentration-inhibition curve.

The source of these data is patent publication US11414406B2, “Antagonists of the muscarinic acetylcholine receptor M4” (Vanderbilt University, priority 2018, dated 2022).

The structures appear in SMILES notation. A value given as a limit tells only on which side of the number the result lay.

For this assay, the target named is T1, Human M4 (Homo sapiens, UniProt P08173).
T1 construct: expressed in transfected cells
T1 sequence (P08173 1-479): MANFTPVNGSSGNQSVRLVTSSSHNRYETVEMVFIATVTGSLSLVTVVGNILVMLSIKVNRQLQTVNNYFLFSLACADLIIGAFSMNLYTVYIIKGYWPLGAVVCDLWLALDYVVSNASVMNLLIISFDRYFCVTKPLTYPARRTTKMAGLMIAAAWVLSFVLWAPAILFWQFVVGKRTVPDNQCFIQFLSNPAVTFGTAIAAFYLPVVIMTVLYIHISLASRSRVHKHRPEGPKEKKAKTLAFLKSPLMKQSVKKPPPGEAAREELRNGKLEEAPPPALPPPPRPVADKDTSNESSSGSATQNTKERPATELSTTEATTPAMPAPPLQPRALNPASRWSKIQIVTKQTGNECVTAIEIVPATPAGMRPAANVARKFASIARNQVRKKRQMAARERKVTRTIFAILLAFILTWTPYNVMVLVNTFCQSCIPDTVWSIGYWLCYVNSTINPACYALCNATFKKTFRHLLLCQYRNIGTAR
In words: mAChR M4 cell-based functional assay (calcium flux, decrease of EC80 acetylcholine response). The following applies: M4/Gqi5/CHO-K1 cells; for remaining activity at 30 µM: % ACh maximum at 30 μM, read-out: Emin (% ACh maximum at 30 μM); for IC50: decrease of response to EC80 acetylcholine. The protocol:
Human M4 cDNA, along with the chimeric G protein Gqi5, were transfected into Chinese hamster ovary (CHO-K1) cells purchased from the American Type Culture Collection using Lipofectamine2000. M4/Gqi5/CHO cells were grown in Ham's F-12 medium containing 10% heat-inactivated fetal bovine serum (FBS), 20 mM HEPES, 500 μg/mL G418 sulfate, and 200 μg/mL Hygromycin B.
For high throughput measurement of agonist-evoked increases in intracellular calcium, CHO-K1 cells stably expressing muscarinic receptors were plated in growth medium lacking G418 and hygromycin at 15,000 cells/20 μL/well in Greiner 384-well black-walled, tissue culture (TC)-treated, clear-bottom plates (VWR). Cells were incubated overnight at 37° C. and 5% CO2. The next day, cells were washed using an ELX 405 (BioTek) with assay buffer; the final volume was then aspirated to 20 μL. Next, 20 μL of a 2.3 μM stock of Fluo-4/acetoxymethyl ester (Invitrogen, Carlsbad, Calif.), prepared as a 2.3 mM stock in DMSO and mixed in a 1:1 ratio with 10% (w/v) Pluronic F-127 and diluted in assay buffer, was added to the wells and the cell plates were incubated for 50 min at 37° C. and 5% CO2. Dye was removed by washing with the ELX 405 and the final volume was aspirated to 20 μL. Compound master plates were formatted in a 10 point concentration-response curve (CRC) format (1:3 dilutions) in 100% DMSO with a starting concentration of 10 or 1 mM using a BRAVO liquid handler (Agilent). Test compound CRCs were then transferred to daughter plates (240 nL) using the Echo acoustic plate reformatter (Labcyte, Sunnyvale, Calif.) and then diluted into assay buffer (40 μL) to a 2× stock using a Thermo Fisher Combi (Thermo Fisher Scientific, Waltham, Mass.).
Calcium flux was measured using the Functional Drug Screening System (FDSS) 6000 or 7000 (Hamamatsu Corporation, Tokyo, Japan) as an increase in the fluorescent static ratio. Compounds were applied to cells (20 μL, 2×) using the automated system of the FDSS at 2 seconds into the protocol and the data were collected at 1 Hz. At 143 s, 10 μL of an EC20 concentration of the muscarinic receptor agonist acetylcholine was added (5×), followed by the addition of 12 μL of an EC80 concentration of acetylcholine at the 268 s time point (5×). Agonist activity was analyzed as a concentration-dependent increase in calcium mobilization upon compound addition. Positive allosteric modulator activity was analyzed as a concentration-dependent increase in the EC20 acetylcholine response. Antagonist activity was analyzed as a concentration-dependent decrease in the EC80 acetylcholine response; for the purposes of the tables herein, an IC50 (inhibitory concentration 50) was calculated as a concentration-dependent decrease of the response elicited by an EC80 concentration of acetylcholine. Concentration-response curves were generated using a four-parameter logistical equation in XLFit curve fitting software (HMS, Bridgewater, N.J.) for Excel (Microsoft, Redmond, Wash.) or Prism (GraphPad Software, Inc., San Diego, Calif.) or the Dotmatics software platform (Dotmatics, Bishop's Stortford, UK).
Compounds were synthesized as described above. Activity (IC50 and Emin) was determined in the inAChR M4 cell-based functional assay as described above and the data are shown in Table 2. The compound numbers correspond to the compound numbers used in Examples 1 and 2 and Tables 1 and 2.
In general terms: Calcium flux is commonly read through the fluorescence of an indicator in the cells.

Turning to `FC(F)(F)c1ccc(-c2ccc(N[C@H]3[C@@H]4CN(CC5CCOCC5)C[C@@H]43)nn2)cn1` [Compound 20, (1R,5S,6s)-3-(tetrahydropyran-4-ylmethyl)-N-[6-[6-(trifluoromethyl)-3-pyridyl]pyridazin-3-yl]-3-azabicyclo[3.1.0]hexan-6-amine], the remaining activity at 30 µM is 48%.

Turning to `c1cc(C2CC2)ncc1-c1ccc(N[C@H]2[C@@H]3CN(CC4CCOCC4)C[C@@H]32)nn1` [Compound 21, (1R,5S,6s)-N-[6-(6-cyclopropyl-3-pyridyl)pyridazin-3-yl]-3-(tetrahydropyran-4-ylmethyl)-3-azabicyclo[3.1.0]hexan-6-amine], the remaining activity at 30 µM worked out at 30%.

In the case of `Fc1cccc(CN2C[C@@H]3[C@H](C2)[C@H]3Nc2ccc(-c3cc(F)ccc3Cl)nn2)c1` [Compound 22, (1R,5S,6s)-N-[6-(2-chloro-5-fluoro-phenyl)pyridazin-3-yl]-3-[(3-fluorophenyl)methyl]-3-azabicyclo[3.1.0]hexan-6-amine], the remaining activity at 30 µM came out at 29%.

`Fc1ccc(CN2C[C@@H]3[C@H](C2)[C@H]3Nc2ccc(-c3cc(F)ccc3Cl)nn2)cc1` [Compound 23, (1R,5S,6s)-N-[6-(2-chloro-5-fluoro-phenyl)pyridazin-3-yl]-3-[(4-fluorophenyl)methyl]-3-azabicyclo[3.1.0]hexan-6-amine]: the remaining activity at 30 µM was found to be 30% and the concentration for half-maximal inhibition (IC50) came out at 1660 nM.

For the compound `Fc1ccc(Cl)c(-c2ccc(N[C@H]3[C@@H]4CN(Cc5ccccn5)C[C@@H]43)nn2)c1` [Compound 24, (1R,5S,6s)-N-[6-(2-chloro-5-fluoro-phenyl)pyridazin-3-yl]-3-(2-pyridylmethyl)-3-azabicyclo[3.1.0]hexan-6-amine], the remaining activity at 30 µM is 16% and the concentration for half-maximal inhibition (IC50) is 6770 nM.

Regarding `Fc1ccc(Cl)c(-c2ccc(N[C@H]3[C@@H]4CN(Cc5ccc6c(c5)OCO6)C[C@@H]43)nn2)c1` [Compound 25, (1R,5S,6s)-3-(1,3-benzodioxol-5-ylmethyl)-N-[6-(2-chloro-5-fluoro-phenyl)pyridazin-3-yl]-3-azabicyclo[3.1.0]hexan-6-amine], the remaining activity at 30 µM was 6% and the 50% inhibitory concentration (IC50) came out at 889 nM.

Take `Cc1cc(CN2C[C@@H]3[C@H](C2)[C@H]3Nc2ccc(-c3cc(F)ccc3Cl)nn2)nn1C` [Compound 26, (1R,5S,6s)-N-[6-(2-chloro-5-fluoro-phenyl)pyridazin-3-yl]-3-[(1,5-dimethylpyrazol-3-yl)methyl]-3-azabicyclo[3.1.0]hexan-6-amine]: the remaining activity at 30 µM turned out to be 13% and the IC50 was 4760 nM.

As to `CC(C)(C)CCN1C[C@@H]2[C@H](C1)[C@H]2Nc1ccc(-c2cc(F)ccc2Cl)nn1` [Compound 27, (1R,5S,6s)-N-[6-(2-chloro-5-fluoro-phenyl)pyridazin-3-yl]-3-(3,3-dimethylbutyl)-3-azabicyclo[3.1.0]hexan-6-amine], the remaining activity at 30 µM is 4% and the IC50 came out at 25.5 nM.

As for `c1ccc(-c2ccc(N[C@H]3[C@@H]4CN(CC5CCOCC5)C[C@@H]43)nn2)cc1` [Compound 28, (1R,5S,6s)-N-(6-phenylpyridazin-3yl)-3-(tetrahydropyran-4-ylmethyl)-3-azabicyclo[3.1.0]hexan-6-amine], the remaining activity at 30 µM was 28%.

On to `c1ccc2cc(-c3ccc(N[C@H]4[C@@H]5CN(CC6CCOCC6)C[C@@H]54)nn3)ccc2c1` [Compound 29, (1R,5S,6s)-N-[6-(2-naphthyl)pyridazin-3-yl]-3-(tetrahydropyran-4-ylmethyl)-3-azabicyclo[3.1.0]hexan-6-amine], for which the remaining activity at 30 µM was determined as 15%.

For the compound `c1cc2c(cc1-c1ccc(N[C@H]3[C@@H]4CN(CC5CCOCC5)C[C@@H]43)nn1)OCO2` [Compound 30, (1R,5S,6s)-N-[6-(1,3-benzodioxol-5-yl)pyridazin-3-yl]-3-(tetrahydropyran-4-ylmethyl)-3-azabicyclo[3.1.0]hexan-6-amine], the remaining activity at 30 µM was 16%.

Turning to `Fc1cccc(-c2ccc(N[C@H]3[C@@H]4CN(CC5CCOCC5)C[C@@H]43)nn2)c1F` [Compound 31, (1R,5S,6s)-N-[6-(2,3-difluorophenyl)pyridazin-3-yl]-3-(tetrahydropyran-4-ylmethyl)-3-azabicyclo[3.1.0]hexan-6-amine], the remaining activity at 30 µM worked out at 27%.

As to `Fc1ccc(-c2ccc(N[C@H]3[C@@H]4CN(CC5CCOCC5)C[C@@H]43)nn2)c(F)c1` [Compound 32, (1R,5S,6s)-N-[6-(2,4-difluorophenyl)pyridazin-3-yl]-3-(tetrahydropyran-4-ylmethyl)-3-azabicyclo[3.1.0]hexan-6-amine], the remaining activity at 30 µM is 40%.

Take `Fc1ccc(F)c(-c2ccc(N[C@H]3[C@@H]4CN(Cc5ccccc5F)C[C@@H]43)nn2)c1` [Compound 33, (1R,5S,6s)-N-[6-(2,5-difluorophenyl)pyridazin-3-yl]-3-[(2-fluorophenyl)methyl]-3-azabicyclo[3.1.0]hexan-6-amine]: the remaining activity at 30 µM was found to be 39%.

`Fc1ccc(F)c(-c2ccc(N[C@H]3[C@@H]4CN(Cc5ccccn5)C[C@@H]43)nn2)c1` [Compound 34, (1R,5S,6s)-N-[6-(2,5-difluorophenyl)pyridazin-3-yl]-3-(2-pyridylmethyl)-3-azabicyclo[3.1.0]hexan-6-amine]: the remaining activity at 30 µM was found to be 46%.

For `Fc1ccc(F)c(-c2ccc(N[C@H]3[C@@H]4CN(Cc5ccc6c(c5)OCO6)C[C@@H]43)nn2)c1` [Compound 35, (1R,5S,6s)-3-(1,3-benzodioxol-5-ylmethyl)-N-[6-(2,5-difluorophenyl)pyridazin-3-yl]-3-azabicyclo[3.1.0]hexan-6-amine], the remaining activity at 30 µM is 36%.

For the compound `Cc1cc(CN2C[C@@H]3[C@H](C2)[C@H]3Nc2ccc(-c3cc(F)ccc3F)nn2)nn1C` [Compound 36, (1R,5S,6s)-N-[6-(2,5-difluorophenyl)pyridazin-3-yl]-3-[(1,5-dimethylpyrazol-3-yl)methyl]-3-azabicyclo[3.1.0]hexan-6-amine], the remaining activity at 30 µM turned out to be 38%.

On to `CC(C)(C)CCN1C[C@@H]2[C@H](C1)[C@H]2Nc1ccc(-c2cc(F)ccc2F)nn1` [Compound 37, (1R,5S,6s)-N-[6-(2,5-difluorophenyl)pyridazin-3-yl]-3-(3,3-dimethylbutyl)-3-azabicyclo[3.1.0]hexan-6-amine], for which the remaining activity at 30 µM came out at 4% and the IC50 was determined as 255 nM.

On to `Cc1cc(CN2C[C@@H]3[C@H](C2)[C@H]3Nc2ccc(-c3ccc4nn(C)cc4c3)nn2)nn1C` [Compound 38, (1R,5S,6s)-3-[(1,5-dimethylpyrazol-3-yl)methyl]-N-[6-(2-methylindazol-5-yl)pyridazin-3-yl]-3-azabicyclo[3.1.0]hexan-6-amine], for which the remaining activity at 30 µM is 40% and the concentration for half-maximal inhibition (IC50) was greater than 10000 nM.
